Measured values: the supplement of paper PMC10307832

How the values were obtained:
Experiment in all cases: relative viability (nuclei count vs DMSO), 5 days (fraction); higher = more cells survive
AZD5582 = compound: C[C@@H](C(=O)N[C@@H](C1CCCCC1)C(=O)N2CCC[C@H]2C(=O)N[C@@H]3[C@@H](CC4=CC=CC=C34)OCC#CC#CCO[C@@H]5CC6=CC=CC=C6[C@@H]5NC(=O)[C@@H]7CCCN7C(=O)[C@H](C8CCCCC8)NC(=O)[C@H](C)NC)NC [AZD5582]
Outline: (§1)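 On vehicle-anchored 1536-well plates, lung cancer cell lines held overnight at 37 °C were pinned with five library-drug doses (not always all listed) spaced by √10. With no medium change over 5 days, they were then fixed, permeabilised and Hoechst-stained in one step and imaged at 4×. MetaXpress counted nuclei, and viability is the median across plates of treated-well over vehicle-well nuclei. Acceptance needed control CV below 25% and at least one doubling.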

Temozolomide = compound: Cn1nnc2c(C(N)=O)ncn2c1=O [Temozolomide]
Outline: as §1

AZD5582 + Alpelisib = compound: C[C@@H](C(=O)N[C@@H](C1CCCCC1)C(=O)N2CCC[C@H]2C(=O)N[C@@H]3[C@@H](CC4=CC=CC=C34)OCC#CC#CCO[C@@H]5CC6=CC=CC=C6[C@@H]5NC(=O)[C@@H]7CCCN7C(=O)[C@H](C8CCCCC8)NC(=O)[C@H](C)NC)NC [AZD5582] + Cc1nc(NC(=O)N2CCC[C@H]2C(N)=O)sc1-c1ccnc(C(C)(C)C(F)(F)F)c1 [Alpelisib] (partner 2 µM)
Outline: (§2)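 A single step with final 0.05% Triton X-100, 1% formaldehyde and 1 ug/ml Hoechst fixed the cells and stained nuclei 5 days after treatment. Lung cancer cell lines in 1536-well plates had been treated by pin tool the day after seeding with one drug alone or a fixed anchor-drug dose plus five library-drug doses (not always all listed) in √10 steps, and nuclei were counted on 4× images. Relative viability is the ratio of nuclei in treated wells to nuclei in vehicle wells, taken as the median of duplicate plates.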

[1] = compound: Cn1nnc2c(C(N)=O)ncn2c1=O [Temozolomide] + CC(C)C[C@H](NC(=O)[C@H](Cc1ccccc1)NC(=O)c1cnccn1)B(O)O [Bortezomib] (partner 0.002 µM)
Outline: as §2

Cell Line | relative viability (AZD5582; 0.001581 µM) | relative viability (AZD5582; 0.005 µM) | relative viability (AZD5582; 0.01581 µM) | relative viability (AZD5582; 0.05 µM) | relative viability (Temozolomide; 0.2 µM) | relative viability (Temozolomide; 0.6325 µM) | relative viability (Temozolomide; 2 µM) | relative viability (Temozolomide; 6.325 µM) | relative viability (Temozolomide; 20 µM) | relative viability (AZD5582 + Alpelisib; first compound 0.001581 µM) | relative viability (AZD5582 + Alpelisib; first compound 0.005 µM) | relative viability (AZD5582 + Alpelisib; first compound 0.01581 µM) | relative viability (AZD5582 + Alpelisib; first compound 0.05 µM) | relative viability ([1]; first compound 0.2 µM) | relative viability ([1]; first compound 0.6325 µM) | relative viability ([1]; first compound 2 µM) | relative viability ([1]; first compound 6.325 µM) | relative viability ([1]; first compound 20 µM)
COR-L23 | 1.02 | 1.11 | 0.966 | 1.03 | 1.19 | 1.04 | 1.05 | 1.04 | 0.955 | 0.73 | 0.801 | 0.799 | 0.875 | 1.15 | 1.12 | 1.08 | 1.06 | 0.963
EMC-BAC-2 | 0.835 | 0.993 | 0.791 | 0.891 | 1.07 | 1.07 | 1.03 | 0.943 | 1 | 0.702 | 0.628 | 0.721 | 0.316 | 0.977 | 1.13 | 1.02 | 1.01 | 1.04
A-427 | 0.917 | 0.971 | 0.882 | 0.721 | 1.04 | 0.996 | 1.03 | 0.713 | 0.46 | 0.996 | 1.01 | 1.04 | 0.881 | 1 | 0.934 | 0.993 | 0.87 | 0.616
Calu-6 | 0.83 | 0.724 | 0.989 | 0.573 | 1.08 | 1 | 1.07 | 0.954 | 0.99 | 0.822 | 0.843 | 1.07 | 0.734 | 1.11 | 0.866 | 1.25 | 0.955 | 1.02
NCI-H2009 | 0.916 | 1.09 | 0.943 | 0.988 | 1.05 | 1.01 | 1.05 | 0.923 | 1.06 | 1.12 | 1.15 | 1.17 | 1.18 | 1.19 | 1 | 1.19 | 0.961 | 1.04
NCI-H1563 | 0.957 | 0.936 | 0.836 | 1.07 | 0.903 | 0.937 | 0.999 | 0.99 | 0.993 | 1.02 | 0.893 | 0.858 | 1.01 | 0.91 | 0.862 | 0.911 | 0.878 | 0.833
NCI-H23 | 0.782 | 0.848 | 0.477 | 0.519 | 1.2 | 1.03 | 0.994 | 0.909 | 0.993 | 0.446 | 0.456 | 0.7 | 0.419 | 1.46 | 1.19 | 0.993 | 0.968 | 0.993
NCI-H2085 | 1.05 | 1.08 | 0.998 | 0.993 | 1 | 1.02 | 1.02 | 0.964 | 0.949 | 1 | 0.987 | 0.928 | 1.01 | 0.992 | 1.26 | 1.04 | 1.01 | 0.888
